Key:
[1] = biological target: T1, cereblon (CRBN)—DNA damage protein 1 (DDB1) complex (Homo sapiens, UniProt Q96SW2); assay: Cereblon HTRF binding assay
T1 construct: encoding amino acid residues 1 to 442 (Uniprot Q96SW2); hexahistidine (N); thrombin cleavage site (N); made in house; host or cells: Sf9 insect cells (baculovirus co-infection)
Summary of the method: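 Biotinylated His-tagged CRBN-DDB1 (0.2 nM, baculovirus-expressed) was combined with 0.2 nM terbium cryptate streptavidin and 2 nM Cy5-lenalidomide probe in 50 mM Tris-HCl pH 7.5, 100 mM NaCl, 1 mM TCEP, 500 μM EDTA, 0.01% Pluronic F127 for 2 h at r.t. HTRF ratio was normalized to plate controls. IC50 came from a Hill fit, given as mean of one or more experiments.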

[2] = biological target: T2, endogenous IKZF1 protein in NB4 cells (Homo sapiens, UniProt Q13422); assay: Endogenous Ikaros 1 (IKZF1) degradation assay (SDS-PAGE); assay type: cell-based; conditions: 1 μM and 10 μM, 20 h of treatment
T2 construct: the endogenous IKZF1 protein; endogenous in cells; host or cells: NB4

[3] = biological target: T3, endogenous SALL4 protein in Kelly cells (Homo sapiens, UniProt Q9UJQ4); assay: Endogenous SALL4 degradation assay (SDS-PAGE); assay type: cell-based; conditions: 10 μM, 20 h of treatment
T3 construct: the endogenous SALL4 protein; endogenous in cells; host or cells: Kelly

[4] = biological target: T4, BRD4 tagged to a HiBiT tag in HEK 293 cells (Homo sapiens, UniProt O60885); assay: HiBiT degradation assay; assay type: cell-based; conditions: for DC50: BRD4 degradation, HiBiT-BRD4 HEK 293 cells, 18 h; for Dmax: HEK293
T4 construct: at the N-terminus of endogenous BRD4; endogenous in cells
Description: Determination of PROTAC potency was determined in HEK 293 cells expressing BRD4 tagged to a HiBiT tag. To generate those cells, HiBiT tag (aminoacid sequence: […]) was inserted, via CRISPR CAS9 knock-in, at the N-terminus of endogenous BRD4.
To measure success of knock-in the cells were then tested for their level of luminescence. Finally a stable pool was generated from them. In a typical experiment, 14×10^3 cells are seed in the wells of a 384 well plate (white flat bottom, tissue culture ready, corning 781080) in 40 μL of culture medium (DMEM, 10% FBS and 2 mM Gln). Immediately after seeding, PROTAC compounds, diluted in DMSO solution, are added to the wells via ECHO 555 acoustic dispenser at the appropriate concentration. DMSO is used as a not active control and as normalization. In each plate a series of compounds of known DC50 are included as quality control. The 384 well plate is placed in an incubator at 37° C. and 5% CO2 for 18 h. At the end of the incubation period plates are removed from the incubator and the medium is replaced with 10 μL of PBS and 10 μL of complete NanoGlo HiBiT solution (Promega N3040, consisting of 9.7 μL of Lysis buffer, with 0.1 μL of LgBiT protein and 0.2 μL of nanoluciferase substrate). After 15 minutes of incubation at r.t., the luciferase activity of the plate is recorded in a luminometer. dBET6 (MCE® Cat. No.: HY-112588) was used for normalization when calculating Dmax.

[5] = biological target: T5, human BRD4 (amino acid residues 42 to 169) (Homo sapiens, UniProt O60885); assay: BRD4 surface plasmon resonance (SPR) assay; assay type: binding; conditions: biotinylated BRD4, 25° C., read-out: BRD4 Affinity Kd
T5 construct: encoding amino acid residues 42 to 169 (Uniprot 060885) of human BRD4; hexahistidine (N, cleaved yes); TEV cleavage site (N, cleaved yes); made in house; host or cells: E. coli BL21 Gold (DE3)

T3 sequence (Q9UJQ4 whole entry): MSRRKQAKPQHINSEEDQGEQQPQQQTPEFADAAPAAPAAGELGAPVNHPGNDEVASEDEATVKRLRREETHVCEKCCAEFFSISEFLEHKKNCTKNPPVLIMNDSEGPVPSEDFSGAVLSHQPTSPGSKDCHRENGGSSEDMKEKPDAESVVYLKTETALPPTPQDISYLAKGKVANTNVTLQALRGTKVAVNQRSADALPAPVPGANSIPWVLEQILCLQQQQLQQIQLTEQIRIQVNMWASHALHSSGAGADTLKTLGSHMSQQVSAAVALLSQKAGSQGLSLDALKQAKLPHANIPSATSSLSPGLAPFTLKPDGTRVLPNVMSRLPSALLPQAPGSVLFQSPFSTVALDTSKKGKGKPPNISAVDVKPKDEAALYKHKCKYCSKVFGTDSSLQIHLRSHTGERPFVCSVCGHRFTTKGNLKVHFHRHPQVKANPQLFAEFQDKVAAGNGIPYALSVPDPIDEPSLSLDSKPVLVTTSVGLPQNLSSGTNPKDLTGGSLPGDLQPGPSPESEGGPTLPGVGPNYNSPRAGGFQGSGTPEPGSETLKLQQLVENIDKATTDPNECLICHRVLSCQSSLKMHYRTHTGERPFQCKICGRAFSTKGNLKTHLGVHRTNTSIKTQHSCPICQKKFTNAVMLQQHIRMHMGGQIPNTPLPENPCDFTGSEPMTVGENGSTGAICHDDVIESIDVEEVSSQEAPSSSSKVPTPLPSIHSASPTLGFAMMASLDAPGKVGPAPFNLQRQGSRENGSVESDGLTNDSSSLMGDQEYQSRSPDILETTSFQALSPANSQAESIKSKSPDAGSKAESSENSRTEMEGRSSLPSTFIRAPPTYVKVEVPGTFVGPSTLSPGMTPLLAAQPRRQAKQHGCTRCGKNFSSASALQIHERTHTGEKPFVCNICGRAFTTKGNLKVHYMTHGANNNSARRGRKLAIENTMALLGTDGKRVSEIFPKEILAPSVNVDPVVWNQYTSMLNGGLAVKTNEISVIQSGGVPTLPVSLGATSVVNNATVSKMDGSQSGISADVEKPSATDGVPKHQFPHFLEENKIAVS
T1 sequence (Q96SW2 with tags, fused parts or gaps): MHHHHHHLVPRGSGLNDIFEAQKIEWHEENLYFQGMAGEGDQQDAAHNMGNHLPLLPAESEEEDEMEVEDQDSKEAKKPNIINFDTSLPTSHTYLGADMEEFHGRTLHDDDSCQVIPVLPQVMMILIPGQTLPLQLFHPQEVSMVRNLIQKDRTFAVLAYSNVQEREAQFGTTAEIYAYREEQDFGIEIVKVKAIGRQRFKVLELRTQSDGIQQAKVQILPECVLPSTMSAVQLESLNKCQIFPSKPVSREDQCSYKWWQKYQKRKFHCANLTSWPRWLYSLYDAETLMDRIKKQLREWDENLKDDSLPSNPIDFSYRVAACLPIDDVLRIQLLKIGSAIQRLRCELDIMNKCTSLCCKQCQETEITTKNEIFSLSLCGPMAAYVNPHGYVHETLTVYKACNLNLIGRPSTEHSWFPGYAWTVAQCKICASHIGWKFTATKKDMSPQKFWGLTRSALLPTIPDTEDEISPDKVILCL
T2 sequence (Q13422 whole entry): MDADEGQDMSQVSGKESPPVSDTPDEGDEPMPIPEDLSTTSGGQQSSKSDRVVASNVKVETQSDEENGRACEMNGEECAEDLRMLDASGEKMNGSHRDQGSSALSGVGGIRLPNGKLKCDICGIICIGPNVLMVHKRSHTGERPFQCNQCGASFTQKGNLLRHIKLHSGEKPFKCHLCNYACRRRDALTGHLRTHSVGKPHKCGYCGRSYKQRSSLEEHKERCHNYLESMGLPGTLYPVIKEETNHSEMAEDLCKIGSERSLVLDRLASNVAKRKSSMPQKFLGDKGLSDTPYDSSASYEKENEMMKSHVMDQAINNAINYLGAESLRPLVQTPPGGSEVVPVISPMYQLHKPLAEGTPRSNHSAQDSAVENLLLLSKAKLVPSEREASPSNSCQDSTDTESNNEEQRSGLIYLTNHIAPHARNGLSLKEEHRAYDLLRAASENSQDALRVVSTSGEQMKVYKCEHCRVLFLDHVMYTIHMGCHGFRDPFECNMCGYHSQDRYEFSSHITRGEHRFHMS

## O=C1CCN(c2cncc3[nH]ccc23)C(=O)N1 [Example 17, 1-(1H-Pyrrolo[2,3-c]pyridin-4-yl)dihydropyrimidine-2,4 (1H,3H)-dione]
[1]
  IC50: 206 nM
[2]
  IKZF1 degradation: no observable/meaningful IKZF1 degradation

## CN1CCCc2ccc(N3CCC(=O)NC3=O)cc21 [Example 33, 1-(1-Methyl-1,2,3,4-tetrahydroquinolin-7-yl)dihydropyrimidine-2,4 (1H,3H)-dione]
[1]
  IC50: 762 nM
[3]
  SALL4 degradation: no observable/meaningful SALL4 degradation
[2]
  IKZF1 degradation: no observable/meaningful IKZF1 degradation

## O=C1CCN(c2ccc3cnoc3c2)C(=O)N1 [Example 39, 1-(Benzo[d]isoxazol-6-yl)dihydropyrimidine-2,4 (1H,3H)-dione]
[1]
  IC50: 82 nM
[2]
  IKZF1 degradation: no observable/meaningful IKZF1 degradation

## O=C1CCN(c2cnc3cc[nH]c3c2)C(=O)N1 [Example 40, 1-(1H-Pyrrolo[3,2-b]pyridin-6-yl)dihydropyrimidine-2,4 (1H,3H)-dione]
[1]
  IC50: 186 nM
[2]
  IKZF1 degradation: no observable/meaningful IKZF1 degradation

## O=C1CCN(c2ccc3cc[nH]c3c2)C(=O)N1 [Example 55, 1-(1H-Indol-6-yl)dihydropyrimidine-2,4 (1H,3H)-dione]
[1]
  IC50: 220 nM
[3]
  SALL4 degradation: no observable/meaningful SALL4 degradation
[2]
  IKZF1 degradation: no observable/meaningful IKZF1 degradation

## Cn1ccc2ccc(N3CCC(=O)NC3=O)cc21 [Example 59, 1-(1-Methyl-1H-indol-6-yl)dihydropyrimidine-2,4 (1H,3H)-dione]
[1]
  IC50: 329 nM
[3]
  SALL4 degradation: no observable/meaningful SALL4 degradation

## O=C1CCN(c2ccc(N3CCNCC3)c3[nH]ccc23)C(=O)N1 [Example 123, 1-(7-(Piperazin-1-yl)-1H-indol-4-yl)dihydropyrimidine-2,4 (1H,3H)-dione]
[1]
  IC50: 597 nM

## CN1CCN(c2ccc(N3CCC(=O)NC3=O)c3cc[nH]c23)CC1 [Example 124, 1-(7-(4-Methylpiperazin-1-yl)-1H-indol-4-yl)dihydropyrimidine-2,4 (1H,3H)-dione]
[1]
  IC50: 527 nM

## Cn1ccc2c(N3CCC(=O)NC3=O)ccc(N3CCNCC3)c21 [Example 125, 1-(1-Methyl-7-(piperazin-1-yl)-1H-indol-4-yl)dihydropyrimidine-2,4 (1H,3H)-dione]
[1]
  IC50: 458 nM

## CN1CCN(c2ccc(N3CCC(=O)NC3=O)c3ccn(C)c23)CC1 [Example 126, 1-(1-Methyl-7-(4-methylpiperazin-1-yl)-1H-indol-4-yl)dihydropyrimidine-2,4 (1H,3H)-dione]
[1]
  IC50: 577 nM

## Cc1sc2c(c1C)C(c1ccc(Cl)cc1)=N[C@@H](CC(=O)NCCNC(=O)Cc1c[nH]c3cc(N4CCC(=O)NC4=O)ccc13)c1nnc(C)n1-2 [Example 127, (S)-2-(4-(4-Chlorophenyl)-2,3,9-trimethyl-6H-thieno[3,2-f][1,2,4]triazolo[4,3-a][1,4]-diazepin-6-yl)-N-(2-(2-(6-(2,4-dioxotetrahydropyrimidin-1 (2H)-yl)-1H-indol-3-yl)acetamido)ethyl)-acetamide]
[4]
  DC50: 198 nM
  Dmax: 97.2%
[5]
  Kd: 13 nM

## Cc1sc2c(c1C)C(c1ccc(Cl)cc1)=N[C@@H](CC(=O)NCCOCCOCCNC(=O)Cc1c[nH]c3cc(N4CCC(=O)NC4=O)ccc13)c1nnc(C)n1-2 [Example 128, (S)-2-(4-(4-Chlorophenyl)-2,3,9-trimethyl-6H-thieno[3,2-f][1,2,4]triazolo[4,3-a][1,4]-diazepin-6-yl)-N-(2-(2-(2-(2-(6-(2,4-dioxotetrahydropyrimidin-1 (2H)-yl)-1H-indol-3-yl)acetamido)-ethoxy)ethoxy)ethyl)acetamide]
[4]
  DC50: 1140 nM
  Dmax: 73.1%
[5]
  Kd: 19 nM

## Cc1sc2c(c1C)C(c1ccc(Cl)cc1)=N[C@@H](CC(=O)NCCOCCOCCOCCOCCOCCOCCNC(=O)Cc1c[nH]c3cc(N4CCC(=O)NC4=O)ccc13)c1nnc(C)n1-2 [Example 129, (S)-2-(4-(4-Chlorophenyl)-2,3,9-trimethyl-6H-thieno[3,2-f][1,2,4]triazolo[4,3-a][1,4]-diazepin-6-yl)-N-(1-(6-(2,4-dioxotetrahydropyrimidin-1 (2H)-yl)-1H-indol-3-yl)-2-oxo-6,9,12,15,18,21-hexaoxa-3-azatricosan-23-yl)acetamide]
[4]
  DC50: 970 nM
  Dmax: 111%
[5]
  Kd: 30 nM

## O=C1CCN(c2ccc3sccc3c2)C(=O)N1 [Example 130, 1-(Benzo[b]thiophen-5-yl)dihydropyrimidine-2,4 (1H,3H)-dione]
[1]
  IC50: 706 nM

## O=c1ccn(-c2ccc3cn(C4CCNCC4)nc3c2)c(=O)[nH]1 [Example 131, 1-(2-(Piperidin-4-yl)-2H-indazol-6-yl)pyrimidine-2,4 (1H,3H)-dione]
[1]
  IC50: 2130 nM

## CN1CCC(n2cc3ccc(-n4ccc(=O)[nH]c4=O)cc3n2)CC1 [Example 132, 1-(2-(1-Methylpiperidin-4-yl)-2H-indazol-6-yl)pyrimidine-2,4 (1H,3H)-dione]
[1]
  IC50: 2160 nM

## CN(C)c1cc(N2CCC(=O)NC2=O)cc2[nH]ccc12 [Example 133, 1-(4-(Dimethylamino)-1H-indol-6-yl)dihydropyrimidine-2,4 (1H,3H)-dione]
[1]
  IC50: 2820 nM

## N#Cc1cc(N2CCC(=O)NC2=O)cc2[nH]ccc12 [Example 134, 6-(2,4-Dioxotetrahydropyrimidin-1 (2H)-yl)-1H-indole-4-carbonitrile]
[1]
  IC50: 1660 nM

## N#Cc1ncc(N2CCC(=O)NC2=O)c2cc[nH]c12 [Example 135, 4-(2,4-dioxotetrahydropyrimidin-1 (2H)-yl)-1H-pyrrolo[2,3-c]pyridine-7-carbonitrile]
[1]
  IC50: 594 nM

## Nc1cccc2c1CN(C1CCC(=O)NC1=O)C2=O (centres unmarked) [lenalidomide, reference compound]
[2]
  IKZF1 degradation: degradation of IKZF1 to an undetected level

## O=C1CCC(N2C(=O)c3ccccc3C2=O)C(=O)N1 (centres unmarked) [thalidomide, reference compound]
[3]
  SALL4 degradation: degradation of SALL4 to an undetected level

Reference: US20230374007A1, “COMPOUNDS AND THEIR USE IN TREATING CANCER” (AstraZeneca AB, priority 2020, published 2023)
